Like-named read-outs stand apart in the source and are kept apart here.
Key:
Sprague-Dawley rats [1] = assay: Enalapril or L-Arginine in hyperuricemic rats on low salt diet: blood pressure (Example 4); type: in vivo, rat; conditions: for systolic blood pressure lower than the hyperuricemic controls: at 7 weeks, enalapril 1 mg/kg/d or L-Arginine 1% in drinking water, p<0.05; for effect on systolic blood pressure of hyperuricemic rats: treatment from the outset, 7 weeks
Method: Rats were placed on either low salt diet, low salt diet with 2% oxonic acid, low salt diet with oxonic acid and enalapril (1 mg/kg/d in drinking water), or low salt diet with oxonic acid and L-Arginine (1% in drinking water).
(§1) Am J Physiol 268:F1 164-76, 1995].

[2] = cited from earlier work
[3] = cited from earlier work; remark: listed apart in the source
Sprague-Dawley rats [4] = assay: Renal findings at 7 weeks: immunohistochemistry and BUN (Example 2); type: in vivo, rat; conditions: low NaCl diet
Method: (§2) Rats were placed on a low sodium diet (NaCl, 0.125%) with or without 2% oxonic acid for 7 weeks. A third group were administered allopurinol in the drinking water (150 mg/L) with weekly adjustments of the dose depending on the uric acid level.
(§3) Am J Clin Pathol 1957; 28:152.]. Serum blood urea nitrogen was measured by a standard kit (Sigma, St Louis, Mo.).
(§4) Renal biopsies were fixed in Methyl-Carnoy's, 10% formalin or 100% ethanol and embedded in paraffin. The presence of uric acid crystals was evaluated by staining 4-μm ethanol-fixed sections with de Galantha and modified Von Kossa stains. Kidney tissue from rats with acute uric acid nephropathy, induced with oxonic acid and uric acid administration was used as a positive control [Stavric, B., Johnson, W. J., and Grice, H. C., Uric acid nephropathy: An experimental model, Proc. Soc. Exp. Biol. Med. 130: 512-16 (1969).]. Light microscopy was performed in 4-μm sections of Methyl-Carnoy's fixed tissue stained with periodic acid Schiff (PAS) reagent or with hematoxylin and eosin.
(§5) Methyl-Carnoy's fixed tissue sections were analyzed by indirect immunoperoxidase [Lombardi, D., Gordon , K. L., Polinsky, P., Suga, S., Schwartz, S. M., and Johnson, R. J. Salt sensitive hypertension develops after transient exposure to angiotensin II. Hypertension 33:1013-1019, 1999] staining with the following primary antibodies: OP199, a goat polyclonal antibody against osteopontin (OPN)(gift of C. Giachelli, Univ of Wash., Seattle); ED-1, a monoclonal antibody to rat monocytes and macrophages (Serotec); goat antihuman type III collagen (Southern Biotechnology Associates Inc, Birminghan Ala.); and anti-renin, a mouse antibody to human renin (Sanofi Recherche, Montpellier, France). Sections were incubated with a secondary antibody followed by horseradish peroxidase-conjugated avidin D (Vector Laboratories, Burlingame, Calif.), diaminobenzidine (Sigma) with or without nickel chloride as a chromogen, and counsterstained with methyl green.
(§6) NOS1 was detected on formalin fixed tissue sections with a rabbit anti-rat neuronal nitric oxide synthase (Transduction Laboratories, Lexington, Ky.), followed by a biotinylated secondary antibody, diaminobenzidine with nickel chloride and counterstained with nuclear fast red.
(§7) All quantification was performed blinded. The tubular expression of osteopontin (OPN), which is a sensitive marker of tubulointerstitial injury, was calculated as the percent of renal cortex occupied by OPN-positive tubules [Lombardi, D., Gordon, K. L., Polinsky, P., Suga, S., Schwartz, S. M., and Johnson, R. J. Salt sensitive hypertension develops after transient exposure to angiotensin II. Hypertension 33:1013-1019, 1999]. Utilizing computer-assisted image analysis software (Optimas V6.2, Media Cybernetics, Silver Springs, Md.) and digitized images, the percent of area occupied by OPN positive tubules per 4 mm^2 field at a magnification of 50× was measured and the mean percent area calculated for each biopsy. The interstitial deposition of collagen type III was calculated as the % of renal cortex occupied by collagen III, noted by immunostaining, by computer image analysis. The mean number of interstitial macrophages (ED-1+cells) in each biopsy was calculated in a blinded manner by counting the total number of positive interstitial cortical cells in 20 sequentially selected 0.25 mm^2 grids at 200× magnification. Renin expression was quantified by the number of glomeruli with positive staining for juxtaglomerular renin using a minimum of 100 glomeruli in each biopsy as previously described [Eng, E., et al., Renal proliferation and phenotypic changes in rats with two-kidney, one-clip Goldblatt hypertension. Am J Hypertens 7:177-185 (1994)]; this has been shown previously to correlate with intrarenal renin content[Eng, E., et al., Renal proliferation and phenotypic changes in rats with two-kidney, one-clip Goldblatt hypertension. Am J Hypertens 7:177-185 (1994)]. […]

Sprague-Dawley rats [5] = assay: Renal findings at 11 weeks: immunohistochemistry and BUN (Example 3); type: in vivo, rat; conditions: low NaCl diet, allopurinol added at 7 weeks
Method: (§8) Rats were placed on the low sodium diet with oxonic acid for 7 weeks, and then were matched based on uric acid level and blood pressure in various groups to either receive allopurinol, have the oxonic acid withdrawn from the diet, or continue the oxonic acid/low salt diet. A control group of six rats were placed on the lowsodium diet alone for 11 weeks. All of these rats were sacrificed at week 11.
as §3, §4, §5, §6
as §7, with “hypertension.” for “hypertension. Am J Hypertens 7:177-185 (1994)]; this has been shown previously to correlate with intrarenal renin content[Eng, E., et al., Renal proliferation and phenotypic changes in rats with two-kidney, one-clip Goldblatt hypertension. Am J Hypertens 7:177-185 (1994)].”

Sprague-Dawley rats [6] = assay: Allopurinol intervention or oxonic acid withdrawal in hyperuricemic rats: blood pressure (Example 3); type: in vivo, rat; conditions: allopurinol added at 7 weeks, OA/LSD continued
Excerpt: as §8, §1, §3

Sprague-Dawley rats [7] = assay: Oxonic acid on low sodium diet with or without allopurinol: blood pressure, uric acid (Example 2); type: in vivo, rat; conditions: allopurinol from the initiation of the oxonic acid diet, low salt
Method: All studies utilized adult male Sprague-Dawley rats (Simonsen Laboratories, Gilroy Calif.)(200-250 g).
as §2
Am J Physiol 268:F1164-76, 1995].
as §3

## N=C(N)NCCC[C@H](N)C(=O)O [L-Arginine]
Sprague-Dawley rats [1]
  systolic blood pressure lower than the hyperuricemic controls: 25 mm Hg
  effect on systolic blood pressure of hyperuricemic rats: largely prevented this increase

## CCCCc1nc(Cl)c(CO)n1Cc1ccc(-c2ccccc2-c2nn[nH]n2)cc1 [Compound No. 9, losartan potassium]
[2]; 25 mg/man oral, in hunger, 0 hr (when administered)
  Concentration of Uric Acid in serum: 5.2 ± 0.5 mg/dL
[2]; 25 mg/man oral, in hunger, 4 hr
  Concentration of Uric Acid in serum: 4.8 ± 0.6 mg/dL
[2]; 25 mg/man oral, in hunger, 24 hr
  Concentration of Uric Acid in serum: 4.6 ± 0.6 mg/dL
[2]; 50 mg/man oral, in hunger, 0 hr (when administered)
  Concentration of Uric Acid in serum: 6.1 ± 1.4 mg/dL
[2]; 50 mg/man oral, in hunger, 4 hr
  Concentration of Uric Acid in serum: 5.3 ± 1.3 mg/dL
[2]; 50 mg/man oral, in hunger, 24 hr
  Concentration of Uric Acid in serum: 5.6 ± 1.4 mg/dL
[2]; 100 mg/man oral, after meal, 4 hr
  Concentration of Uric Acid in serum: 4.9 ± 1.0 mg/h
[2]; 100 mg/man oral, in hunger, 0 hr (when administered)
  Concentration of Uric Acid in serum: 5.9 ± 0.9 mg/dL
[2]; 100 mg/man oral, in hunger, 4 hr
  Concentration of Uric Acid in serum: 4.6 ± 0.7 mg/dL
[2]; 100 mg/man oral, in hunger, 24 hr
  Concentration of Uric Acid in serum: 5.2 ± 0.8 mg/dL
[2]; 200 mg/man oral, in hunger, 0 hr (when administered)
  Concentration of Uric Acid in serum: 5.6 ± 0.7 mg/dL
[2]; 200 mg/man oral, in hunger, 4 hr
  Concentration of Uric Acid in serum: 4.3 ± 0.9 mg/dL
[2]; 200 mg/man oral, in hunger, 24 hr
  Concentration of Uric Acid in serum: 5.0 ± 0.9 mg/dL
[3]; 25 mg/man oral, in hunger, 4-8 hr
  uric acid excretion in urine (Concentration of Uric Acid): 32.4 ± 14.7 mg/h
[3]; 25 mg/man oral, in hunger, 8-12 hr
  uric acid excretion in urine (Concentration of Uric Acid): 28.7 ± 13.6 mg/h
[3]; 25 mg/man oral, in hunger, 12-24 hr
  uric acid excretion in urine (Concentration of Uric Acid): 19.7 ± 9.9 mg/h
[3]; 25 mg/man oral, in hunger, 24-40 hr
  uric acid excretion in urine (Concentration of Uric Acid): 33.2 ± 21.9 mg/h
[3]; 50 mg/man oral, in hunger, 0-4 hr
  uric acid excretion in urine (Concentration of Uric Acid): 52.8 ± 4.3 mg/h
[3]; 50 mg/man oral, in hunger, 8-12 hr
  uric acid excretion in urine (Concentration of Uric Acid): 39.1 ± 4.4 mg/h
[3]; 50 mg/man oral, in hunger, 12-24 hr
  uric acid excretion in urine (Concentration of Uric Acid): 22.2 ± 3.8 mg/h
[3]; 50 mg/man oral, in hunger, 24-40 hr
  uric acid excretion in urine (Concentration of Uric Acid): 26.6 ± 5.4 mg/h
[3]; 100 mg/man oral, after meal, 0-4 hr
  uric acid excretion in urine (Concentration of Uric Acid): 75.9 ± 19.0 mg/h
[3]; 100 mg/man oral, after meal, 4-8 hr
  uric acid excretion in urine (Concentration of Uric Acid): 59.0 ± 3.8 mg/h
[3]; 100 mg/man oral, after meal, 8-12 hr
  uric acid excretion in urine (Concentration of Uric Acid): 31.8 ± 4.5 mg/h
[3]; 100 mg/man oral, after meal, 12-24 hr
  uric acid excretion in urine (Concentration of Uric Acid): 19.7 ± 2.5 mg/h
[3]; 100 mg/man oral, after meal, 24-40 hr
  uric acid excretion in urine (Concentration of Uric Acid): 29.5 ± 4.1 mg/h
[3]; 100 mg/man oral, in hunger, 0-4 hr
  uric acid excretion in urine (Concentration of Uric Acid): 81.2 ± 15.7 mg/h
[3]; 100 mg/man oral, in hunger, 4-8 hr
  uric acid excretion in urine (Concentration of Uric Acid): 36.4 ± 7.7 mg/h
[3]; 100 mg/man oral, in hunger, 8-12 hr
  uric acid excretion in urine (Concentration of Uric Acid): 30.1 ± 6.8 mg/h
[3]; 100 mg/man oral, in hunger, 12-24 hr
  uric acid excretion in urine (Concentration of Uric Acid): 19.2 ± 4.2 mg/h
[3]; 100 mg/man oral, in hunger, 24-40 hr
  uric acid excretion in urine (Concentration of Uric Acid): 28.0 ± 7.2 mg/h
[3]; 200 mg/man oral, in hunger, 0-4 hr
  uric acid excretion in urine (Concentration of Uric Acid): 78.7 ± 15.3 mg/h
[3]; 200 mg/man oral, in hunger, 4-8 hr
  uric acid excretion in urine (Concentration of Uric Acid): 25.4 ± 6.6 mg/h
[3]; 200 mg/man oral, in hunger, 8-12 hr
  uric acid excretion in urine (Concentration of Uric Acid): 19.6 ± 5.2 mg/h
[3]; 200 mg/man oral, in hunger, 12-24 hr
  uric acid excretion in urine (Concentration of Uric Acid): 13.4 ± 2.3 mg/h
[3]; 200 mg/man oral, in hunger, 24-40 hr
  uric acid excretion in urine (Concentration of Uric Acid): 21.0 ± 3.0 mg/h

## Oc1ncnc2[nH]ncc12 [Allopurinol, allopurinol]
Sprague-Dawley rats [4]; control 39.6 ± 2.0
  Renin: 44.1 ± 1.6 % positive JGA
Sprague-Dawley rats [4]; control 147.2 ± 12.4
  NOS-1: 97.4 ± 5.6 positive cells/100 glomeruli
Sprague-Dawley rats [4]; mean±SE, control 0.9 ± 0.06
  OPN: 1.3 ± 0.15 % increase
Sprague-Dawley rats [4]; mean±SE, control 5.4 ± 0.3
  Type III collagen: 6.2 ± 0.6%
Sprague-Dawley rats [4]; mean±SE, control 14.4 ± 1.2
  BUN: 15.2 ± 2.3 mg/dL
Sprague-Dawley rats [4]; mean±SE, control 18.3 ± 1.3
  ED-1 (macrophages): 20.5 ± 0.6 cells/mm2
Sprague-Dawley rats [5]; control 0.7 ± 0.08
  OPN: 0.97 ± 0.03 % increase
Sprague-Dawley rats [5]; control 7.2 ± 0.6
  Type III collagen: 9.6 ± 0.3 %
Sprague-Dawley rats [5]; control 16.6 ± 0.9
  BUN: 17.7 ± 0.5 mg/dL
Sprague-Dawley rats [5]; control 27.8 ± 1.4
  ED-1 (macrophages): 25.2 ± 2.6 cells/mm2
Sprague-Dawley rats [5]; control 41.0 ± 1.9
  Renin: 44.2 ± 1.3 % positive JGA
Sprague-Dawley rats [5]; control 104.4 ± 11.5
  NOS-1: 98.6 ± 5.1 positive cells/100 glomeruli
Sprague-Dawley rats [6]
  blood pressure and serum uric acid in hypertensive, hyperuricemic rats: reduction in the blood pressure in association with a fall in serum uric acid values
Sprague-Dawley rats [7]
  development of hyperuricemia and hypertension: prevented

## CCOC(=O)[C@H](CCc1ccccc1)N[C@@H](C)C(=O)N1CCC[C@H]1C(=O)O [enalapril]
Sprague-Dawley rats [1]
  systolic blood pressure lower than the hyperuricemic controls: 25 mm Hg
  effect on systolic blood pressure of hyperuricemic rats: lowest systolic blood pressures
